Measurements reported in US20220403327A1, “CUSTOMIZABLE 3D CELL CULTURE SYSTEM COMPRISING HYDROGEL-EMBEDDED CELLS AND USES THEREOF” (POLYVALOR, LIMITED PARTNERSHIP, priority 2019, published 2022).

Experiments:
Type in all cases: cell-based
[1] = system: breast cancer cells; test: Drug screening test: tumor migration on plasma-treated PLA electrospun mat 3D cell culture model; settings: 0, 0.05, 0.1, 0.5, 1 and 2 μM in media; day 7 of cell culture; A1G7 hydrogel on fibroblast-seeded PLA mats; triplicate
Protocol: FIG. 11B is a graph showing the measurement of the number of tumor cells migrated to the surface of PLA mats at different concentrations (0, 0.05, 0.1, 0.5, 1 or 2 μM) of Doxorubicin. Experiments were performed in triplicate and the error bars in the graph show the standard deviation.
(§1) A drug screening setup was designed using the known anti-tumor drug Doxorubicin to assess tumor migration performance on the 3D cell culture model of the present disclosure. The plasma-treated PLA electrospun mats seeded with fibroblasts and tumor cells on A1G7 hydrogel on top, were loaded with various concentrations of Doxorubicin (0, 0.05, 0.1, 0.5, 1 and 2 μM) in triplicate, and tumor migration assessment was performed at day 7 of cell culture. […] The experiment was done in triplicate and the error bars presented in the chart are based on standard deviation.

[2] = system: fibroblasts; test: Drug screening test: stromal cells on nanofibrous PLA scaffolds of the 3D cell culture model; settings: 0-2 μM; day 7; relative to samples from previous experiment without drug
Protocol: as §1, with “A1G7” left out

[3] = system: bone metastases prostate (BMP4) patient-derived tumor cells; test: Drug screening test: tumor migration on PP-EL plasma-coated PLA electrospun mats with patient-derived tumor cells; settings: 0, 0.05, 0.1 and 0.5 μM, day 7 of cell culture, A1G7 hydrogel, triplicate
Protocol: FIG. 12C is a graph showing the measurement of the number of BMP4 tumor cells migrated to the surface of PP-EL plasma-treated PLA mats at different concentrations (0, 0.05, 0.1, or 0.5 μM) of Doxorubicin. Experiments were performed in triplicate and the error bars in the graph show the standard deviation.
The 3D cell culture system according to the present disclosure was also used to perform a doxorubicin screening tested with tumor cells derived from patients (bone metastases prostate (BMP4) patient-derived tumor cells) and a breast tumor cell line (MBA-MB231) in A1G7 hydrogel. In this experiment, the PLA scaffolds were coated with PP-EL, ethyl lactate (EL) plasma coating in atmospheric pressure, and captured at day 7 after culture. The results depicted in FIG. 12A indicate a significant difference in the appearance of primary BMP4 tumor cells and commercial tumor cell line in the images. The pictures show the 3D stack of the total mat layers (certain thickness) obtained by signal from cells.
The PP-EL plasma-coated PLA electrospun mats seeded with BMP4 tumor cells on A1G7 hydrogel on top, were loaded with various concentrations of Doxorubicin (0, 0.05, 0.1 and 0.5 μM) in triplicate, and tumor migration assessment was performed at day 7 of cell culture.

COc1cccc2c1C(=O)c1c(O)c3c(c(O)c1C2=O)C[C@@](O)(C(=O)CO)C[C@@H]3O[C@H]1C[C@H](N)[C@H](O)[C@H](C)O1 [Doxorubicin]
number of breast cancer cells that were able to migrate to the surface of scaffolds [1]: significant reduction | number of stromal cells (fibroblasts) on nanofibrous scaffolds [2]: reduced number of stromal cells | BMP4 tumor cells migration [3]: dose-dependent inhibition
